Assay results reported in ChEMBL document CHEMBL1201862, “PubChem BioAssay data set” (2004).
The source made the active and inactive calls.

These molecules were tested on H9c2 (assay: cells). Details: Rattus norvegicus, H9c2, Myocardium.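 Also: confirmatory concentration-response retest of ultra-high-throughput screening hits for modulation of myocardial damage; cell death induced by hydrogen peroxide oxidative stress; compound pretreatment for 60 min then peroxide exposure for 2 h; potency is for protecting the cells against peroxide damage rather than for killing them.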
Assay type: functional, cell-based
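For AC50 in this document: luciferase reporter driven by Pax8 target thyroperoxidase promoter measured by SteadyGlo luminescence.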

Row | Structure (SMILES) | IC50
1 | COc1cccc(C(=O)CSc2nnc(-c3cc(OC)c(OC)c(OC)c3)o2)c1 | > 79 µM (inactive)
2 | CC(=O)Nc1cccc(NC(=O)CSc2ccc(-c3ccccn3)nn2)c1 | 24.5 µM (active)
3 | CC(C)(C)C(=O)Nc1cccc(-c2nnc(-c3cccc(NC(=O)C(C)(C)C)c3)o2)c1 | > 79 µM (inactive)
4 | O=C(C[C@@H]1C/C=C/CC[C@@H](Cc2ccc(F)cc2)C(=O)O[C@@H](c2ccccc2)CNC1=O)NCCO | 11.4 µM (active)
5 | O=C1NC(c2ccc(Cl)c([N+](=O)[O-])c2)Nc2ccccc21 (configuration not stated) | 21.9 µM (active)
6 | Cc1c(C(=O)NCC2COc3ccccc3O2)oc2ccc(S(=O)(=O)N3CCOCC3)cc12 (configuration not stated) | > 79 µM (inactive)
7 | O=C(CCc1nc(O)c2ccccc2n1)N1CCN(S(=O)(=O)c2ccc(F)cc2)CC1 | > 79 µM (inactive)
8 | O=C(Oc1cccc2c(O)nccc12)c1ccccc1 | > 79 µM (inactive)

What follows are molecules tested against T1, Polyadenylate-binding protein 1 (Homo sapiens, UniProt P11940) (assay: PABP1 MLLE–PAM2 interaction inhibitors, dose response, miRNA deadenylation inhibitor project, biochemical, fluorescence polarization, Cy5-PAM2 peptide, secondary (AID 602260)). Details: read-out: IC50_Mean.
Assay type: functional

T1 sequence (P11940 whole entry): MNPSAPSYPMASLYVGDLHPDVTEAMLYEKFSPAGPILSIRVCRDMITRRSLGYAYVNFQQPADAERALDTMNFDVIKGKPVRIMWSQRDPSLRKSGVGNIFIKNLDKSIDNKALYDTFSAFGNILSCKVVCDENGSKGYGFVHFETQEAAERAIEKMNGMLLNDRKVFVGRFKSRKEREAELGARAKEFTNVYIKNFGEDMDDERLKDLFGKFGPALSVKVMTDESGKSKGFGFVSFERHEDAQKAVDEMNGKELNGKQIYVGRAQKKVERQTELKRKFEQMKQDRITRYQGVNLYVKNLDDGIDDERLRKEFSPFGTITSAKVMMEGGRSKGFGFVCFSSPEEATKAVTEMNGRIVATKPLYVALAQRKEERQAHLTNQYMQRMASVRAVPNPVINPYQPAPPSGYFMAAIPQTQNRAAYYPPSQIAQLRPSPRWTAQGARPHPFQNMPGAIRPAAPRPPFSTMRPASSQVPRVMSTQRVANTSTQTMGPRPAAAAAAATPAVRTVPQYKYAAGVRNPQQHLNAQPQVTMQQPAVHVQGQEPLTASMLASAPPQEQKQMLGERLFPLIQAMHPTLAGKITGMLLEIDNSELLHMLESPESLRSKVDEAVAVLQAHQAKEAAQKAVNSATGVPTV

Row | Structure (SMILES) | IC50
9 | COCCCNc1nc2ccccc2nc1NS(=O)(=O)c1cccc(Cl)c1 | > 66 µM (inactive)
10 | O=C(O)Cn1c2ccccc2c2nnc(S)nc21 | > 66 µM (inactive)
11 | CC(NC(=O)c1cccs1)C(S)c1ccccc1 (configuration not stated) | > 66 µM (inactive)

Each molecule was assayed against T2, Corticotropin-releasing factor receptor 2/Corticotropin-releasing factor-binding protein (Homo sapiens, UniProt P24387+Q13324) (assay: Dose Response confirmation of uHTS hits for small molecule antagonists of the CRF-binding protein and CRF-R2 receptor complex.). Details: read-out: IC50_Mean.
T2 sequence (Q13324 whole entry): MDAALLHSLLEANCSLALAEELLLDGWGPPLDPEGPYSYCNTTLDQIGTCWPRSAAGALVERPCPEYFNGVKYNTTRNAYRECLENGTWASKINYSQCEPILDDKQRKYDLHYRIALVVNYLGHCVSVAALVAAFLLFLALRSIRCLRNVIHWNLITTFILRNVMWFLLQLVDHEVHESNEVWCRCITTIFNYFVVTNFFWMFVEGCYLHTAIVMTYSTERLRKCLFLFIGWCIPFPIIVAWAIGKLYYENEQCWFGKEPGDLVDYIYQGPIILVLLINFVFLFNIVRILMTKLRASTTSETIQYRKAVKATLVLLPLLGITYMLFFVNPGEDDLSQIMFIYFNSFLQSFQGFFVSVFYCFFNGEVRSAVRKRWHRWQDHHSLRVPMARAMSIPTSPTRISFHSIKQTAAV
T2 sequence (P24387 whole entry): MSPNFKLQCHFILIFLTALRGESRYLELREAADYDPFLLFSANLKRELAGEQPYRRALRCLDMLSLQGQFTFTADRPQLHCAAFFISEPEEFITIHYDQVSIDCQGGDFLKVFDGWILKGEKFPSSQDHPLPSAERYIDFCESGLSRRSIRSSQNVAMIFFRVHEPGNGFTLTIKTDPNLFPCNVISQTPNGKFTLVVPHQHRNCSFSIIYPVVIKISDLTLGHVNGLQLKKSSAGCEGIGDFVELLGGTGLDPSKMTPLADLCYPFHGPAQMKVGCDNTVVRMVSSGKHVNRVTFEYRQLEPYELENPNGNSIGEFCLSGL
Assay type: functional

Row | Structure (SMILES) | IC50
12 | CN(C(=O)CCS(=O)(=O)c1ccc2c(c1)oc(=O)n2C)C1CCCCC1 | > 47.1 µM (inactive)
13 | Cc1ccc(OCC(=O)Nc2ccc([N+](=O)[O-])cn2)cc1C | > 47.1 µM (inactive)
14 | O=C(NCN1CCCCC1)c1cnccn1 | > 47.1 µM (inactive)
15 | COc1ccc(C(=O)COC(=O)CCNS(=O)(=O)c2ccc(NC(C)=O)cc2)c(OC)c1 | > 47.1 µM (inactive)
16 | COc1ccccc1N1CCN(C(=O)C(=O)c2cn(CC(=O)N3CCCC3)c3ccccc23)CC1 | > 47.1 µM (inactive)
17 | CC(=O)c1ccc(NC(=O)C(C)OC(=O)c2ccc(Br)o2)cc1 (configuration not stated) | > 47.1 µM (inactive)
18 | N#Cc1ccc(NC(=O)COC(=O)CSc2nnc(-c3ccc(Cl)cc3)o2)cc1 | > 47.1 µM (inactive)
19 | CC(C)(C)OC(=O)N1CCCN(C(=O)Nc2cccc(Cl)c2)CC1 | > 47.1 µM (inactive)
20 | CCN(CC)C(=O)c1c(C)nc2ccccn12 | > 47.1 µM (inactive)
21 | CCCS(=O)(=O)N1CCC(C(=O)NCCCOC(C)C)CC1 | > 47.1 µM (inactive)
22 | CN(C)S(=O)(=O)c1ccc(Cl)c(NC(=O)CNC2(C)CCS(=O)(=O)C2)c1 (configuration not stated) | > 47.1 µM (inactive)
23 | C=CCn1c(SCC(=O)Nc2c(C)cccc2C)nnc1-c1ccncc1 | > 47.1 µM (inactive)
24 | Cc1cccc(-n2c(SCC(=O)N3CC(=O)Nc4ccccc43)nc3ccccc3c2=O)c1C | > 47.1 µM (inactive)

Each molecule was assayed against T1, Polyadenylate-binding protein 1 (assay: PABP1 MLLE–PAM2 binding inhibitor potency, dose response, biochemical, fluorescence polarization, FITC-PAM2 peptide (AID 602259)). Details: read-out: IC50_Mean.
Assay type: functional

Row | Structure (SMILES) | IC50
25 | COCCCNc1nc2ccccc2nc1NS(=O)(=O)c1cccc(Cl)c1 | > 66 µM (inactive)
26 | O=C(O)Cn1c2ccccc2c2nnc(S)nc21 | > 66 µM (inactive)
27 | CC(NC(=O)c1cccs1)C(S)c1ccccc1 (configuration not stated) | > 66 µM (inactive)

These molecules were tested against T2, Corticotropin-releasing factor receptor 2/Corticotropin-releasing factor-binding protein (assay: activators of CRF receptor 2 with binding protein – uHTS hits, confirmation (AID 602473)). Details: read-out: EC50_Mean.
Assay type: functional

Row | Structure (SMILES) | EC50
28 | CN(C(=O)CCS(=O)(=O)c1ccc2c(c1)oc(=O)n2C)C1CCCCC1 | > 53 µM (inactive)
29 | Cc1ccc(OCC(=O)Nc2ccc([N+](=O)[O-])cn2)cc1C | > 53 µM (inactive)
30 | O=C(NCN1CCCCC1)c1cnccn1 | > 53 µM (inactive)
31 | COc1ccc(C(=O)COC(=O)CCNS(=O)(=O)c2ccc(NC(C)=O)cc2)c(OC)c1 | > 53 µM (inactive)
32 | COc1ccccc1N1CCN(C(=O)C(=O)c2cn(CC(=O)N3CCCC3)c3ccccc23)CC1 | > 53 µM (inactive)
33 | CC(=O)c1ccc(NC(=O)C(C)OC(=O)c2ccc(Br)o2)cc1 (configuration not stated) | > 53 µM (inactive)
34 | N#Cc1ccc(NC(=O)COC(=O)CSc2nnc(-c3ccc(Cl)cc3)o2)cc1 | > 53 µM (inactive)
35 | CC(C)(C)OC(=O)N1CCCN(C(=O)Nc2cccc(Cl)c2)CC1 | > 53 µM (inactive)
36 | CCN(CC)C(=O)c1c(C)nc2ccccn12 | > 53 µM (inactive)
37 | CCCS(=O)(=O)N1CCC(C(=O)NCCCOC(C)C)CC1 | > 53 µM (inactive)
38 | CN(C)S(=O)(=O)c1ccc(Cl)c(NC(=O)CNC2(C)CCS(=O)(=O)C2)c1 (configuration not stated) | > 53 µM (inactive)
39 | C=CCn1c(SCC(=O)Nc2c(C)cccc2C)nnc1-c1ccncc1 | > 53 µM (inactive)
40 | Cc1cccc(-n2c(SCC(=O)N3CC(=O)Nc4ccccc43)nc3ccccc3c2=O)c1C | > 53 µM (inactive)

The molecules below were run against Paired box protein Pax-8 (Homo sapiens, UniProt Q06710) (assay: inhibitors of PAX8-driven TPO luciferase reporter, dose response, RMG-I cells, cherry-pick (AID 687027)). Details: not given.
Assay type: functional, cell-based

Paired box protein Pax-8, sequence (Q06710 whole entry): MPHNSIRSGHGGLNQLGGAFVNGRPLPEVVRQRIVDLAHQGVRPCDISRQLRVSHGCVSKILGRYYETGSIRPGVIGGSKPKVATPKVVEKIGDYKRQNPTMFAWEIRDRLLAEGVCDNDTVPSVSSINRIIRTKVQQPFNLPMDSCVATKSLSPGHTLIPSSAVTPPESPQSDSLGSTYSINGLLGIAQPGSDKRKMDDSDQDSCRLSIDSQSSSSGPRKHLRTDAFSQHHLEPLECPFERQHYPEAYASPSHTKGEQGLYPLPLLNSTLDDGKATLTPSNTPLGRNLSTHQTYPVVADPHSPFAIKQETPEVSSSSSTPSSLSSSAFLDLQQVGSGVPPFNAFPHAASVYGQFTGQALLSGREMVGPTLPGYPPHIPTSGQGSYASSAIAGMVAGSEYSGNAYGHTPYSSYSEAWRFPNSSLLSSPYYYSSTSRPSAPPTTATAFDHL

Row | Structure (SMILES) | AC50
41 | C[C@@H]1CCCCO[C@@H](CN(C)CC2CCCCC2)[C@@H](C)CN([C@@H](C)CO)C(=O)c2cc(NC(=O)Nc3ccc(C(F)(F)F)cc3)ccc2O1 | 12 µM (active)
42 | C[C@@H]1CN([C@H](C)CO)C(=O)c2cc(NC(=O)c3ccccc3)ccc2O[C@@H](C)CCCCO[C@H]1CN(C)Cc1ccc(C(F)(F)F)cc1 | 3.09 µM (active)
